In patent publication US7262206B2, “Cycloalkyl—containing 5-acylindolinones, the preparation thereof and their use as medicaments” (Boehringer Ingelheim International GmbH, priority 2004, dated 2007):

What was measured:
db/db mice = test: Oral glucose tolerance test; assay type: in vivo; conditions: fasted db/db mice, 2 g/kg oral glucose 30 minutes after substance
Experimental: Oral Glucose Tolerance Test
Fasted db/db mice 7 to 9 weeks old (Janvier, France) are weighed and blood is taken from the tip of the tail. This blood is used for the first measurement of glucose on the basis of which the animals are randomised and divided into groups. The test substance to be tested may be given either orally or i.p. as a suspension in 0.5% Natrosol. 30 minutes after the administration of the substance the animals are given orally 2 g/kg glucose in a volume of 0.1 ml/100 g body weight dissolved in NaCl solution. Subsequently, the glucose values are determined from the tail blood using a glucometer (Ultra OneTouch, Lifescan) at specific time intervals [30, 60, 120 and 180 minutes after oral administration of the glucose].

rats = test: Tolerability after oral administration to rats (behaviour); assay type: in vivo; conditions: oral administration of 10 mg/kg

CC(=O)c1ccc2c(c1)/C(=C(/NC1CCN(C)CC1)c1ccc3c(c1)OCO3)C(=O)N2 [Example 1, 5-Acetyl-3-[(benzo[1,3]dioxol-5-yl)-(1-methyl-piperidin-4-ylamino)-methylidene]-2-indolinone] was tested. Which “activity in the oral glucose tolerance test” value (db/db mice) did it give?
Its value is “significant activity”.

And the “changes in the animals' behaviour” value (rats)?
Its value is “no changes were observed in the animals' behaviour”.
